11 compounds from patent publication US8110686B2 (Chugai Seiyaki Kabushiki Kaisha, priority 2001, dated 2012) can be followed below.

The target of series [1] is T1, malonyl-CoA decarboxylase prepared from rat heart (Rattus norvegicus, UniProt Q920F5).
T1 construct: malonyl-CoA decarboxylase prepared from rat heart; from tissue; host or cells: rat heart
T1 sequence (Q920F5 39-492): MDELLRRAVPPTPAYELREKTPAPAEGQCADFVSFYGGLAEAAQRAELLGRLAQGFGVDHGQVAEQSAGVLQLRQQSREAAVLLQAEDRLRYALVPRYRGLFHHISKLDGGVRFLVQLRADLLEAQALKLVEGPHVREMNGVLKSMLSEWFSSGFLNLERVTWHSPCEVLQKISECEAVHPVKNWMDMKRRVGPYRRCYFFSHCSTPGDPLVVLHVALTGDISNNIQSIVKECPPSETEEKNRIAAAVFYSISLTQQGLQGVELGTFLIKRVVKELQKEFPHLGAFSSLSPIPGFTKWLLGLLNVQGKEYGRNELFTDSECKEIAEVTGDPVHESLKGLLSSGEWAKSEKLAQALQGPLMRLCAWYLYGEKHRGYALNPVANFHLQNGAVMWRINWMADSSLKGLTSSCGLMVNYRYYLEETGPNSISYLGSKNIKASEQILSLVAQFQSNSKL
Put plainly: In vitro MCD inhibitory assay (spectrophotometric, 96 well). Type of series: biochemical. Conditions: read-out: IC50 of the MCD inhibitors. As to the method:
The following reagents are added into a 96 well titer plate: Tris-HCl buffer, 20 μL; DTE, 10 μL; l-malate, 20 μL; NAD, 10 μL; NADH, 25 μL; water, 80 μL; malic dehydrogenase, 5 μL. The contents are mixed and incubated for 2 min followed by the addition of 5 μL of citrate synthase. […] The content is incubated and absorbence at […] is measured.
Active compounds are characterized by the concentration of the compound that caused 50% inhibition of MCD activity (IC50).

Series [2] has as its system isolated working hearts from male Sprague-Dawley rats. Put plainly: Glucose oxidation and fatty acid oxidation measurement in the perfused rat heart. The following applies: isolated perfused rat heart assay; versus ranolazine or trimetazidine. As to the method:
Isolated working hearts from male Sprague-Dawley rats are subjected to a 60-minute aerobic perfusion period with a modified Krebs-Henseleit solution containing 5 mmol/L glucose; 100 μU/mL insulin; 3% BAS; and 1.2 mmol/L palmitate. Working hearts are used in these studies to approximate the metabolic demand of the heart seen in vivo. (Kantor et al., Circulation Research 86:580-588 (2000)). The test compound is added 5 minutes into the perfusion period.
Glucose oxidation rates are determined by the quantitative collection of ^14CO2 produced by hearts perfused with buffer containing […]. Rates of fatty acid oxidation are determined by the quantitative collection of ^14CO2 produced by hearts perfused with buffer containing [^14C]palmitate (McNeill, J. H. in “Measurement of cardiovascular function”, chapter 2, CRC press, New York (1997)).
Active compounds are characterized by an increase in glucose oxidation as compared to control experiment (DMSO). The compounds that caused statistically significant increases in glucose oxidation are considered to be active. The preferred compounds cause statistically significant increases in glucose oxidation at 20 μM. Statistical significance was calculated using the Student's t test for paired or unpaired samples, as appropriate. The results with P<0.05 are considered to be statistically significant.

Regarding `CC(C)CN(C(=O)Nc1ccc(C(F)(F)F)cc1)c1ccc2nc(S)sc2c1` [Table 3; entry 1, N-(2-mercapto-1,3-benzothiazol-6-yl)-N-(2-methylpropyl)-N′-[4-(trifluoromethyl)phenyl]urea], the half-inhibitory concentration (IC50) in series [1] stood at 31 nM. On the same count and under the same terms, for `CC(C)CN(C(=O)Nc1ccc(C#N)cc1)c1ccc2nc(S)sc2c1` [Table 3; entry 3] the value was 93 nM. As for `CC(C)N(C(=O)Nc1ccc(C(F)(F)F)cc1)c1ccc2nc(S)sc2c1` [Table 3; entry 16], in series [2], the “effects in metabolism shift compared with known metabolism modulators” value is listed as “more profound effects in metabolism shift than the known metabolism modulators such as ranolazine or trimetazidine”. Also, the IC50 in series [1] turned out to be 23 nM.

With `CC(C)N(C(=O)Nc1ccc(CC(=O)O)cc1)c1ccc2nc(S)sc2c1` [Table 3; entry 17], the 50% inhibitory concentration (IC50) in series [1] was determined as 42 nM.

Take `CC(C)N(C(=O)Oc1ccc(Cl)cc1)c1ccc2nc(S)sc2c1` [Table 4; entry 4]: the IC50 in series [1] worked out at 75 nM. On the same count and under the same terms, for `CC(C)N(C(=O)OCCOCc1ccccc1)c1ccc2nc(S)sc2c1` [Table 4; entry 6] the value was 1600 nM. `O=C1CNC(=S)N1c1ccc2nc(S)sc2c1` [Table 5; entry 1, 3-(2-mercapto-1,3-benzothiazol-6-yl)-2-thioxoimidazolidin-4-one] yielded a melting point above 266 °C.

In turn, `CCCCOc1ccc(NC(=O)N(CC)c2ccc3nc(S)sc3n2)cc1` [Table 7; entry 1, 3-(4-butoxy-phenyl)-1-ethyl-1-(2-mercapto-thiazolo[5,4-b]pyridin-5-yl)-urea] returned a melting point of 134.3 to 135 °C. In series [1], the 50% inhibitory concentration (IC50) is 62 nM. As for `CC(C)N(C(=O)Nc1ccc(C(F)(F)F)cc1)c1ccc2nc(S)sc2n1` [Table 7; entry 8], in series [1], the IC50 came to 52 nM.

In turn, `CCN(C(=O)COc1ccccc1)c1ccc2nc(S)sc2n1` [Table 8; entry 1, N-ethyl-N-(2-mercapto-thiazolo[5,4-b]pyridin-5-yl)-2-phenoxy-acetamide] gave a melting point of 107.5 to 109 °C. The IC50 in series [1] was found to be 98 nM. In the case of `CC(C)N(C(=O)c1ccc(C(F)(F)F)cc1)c1ccc2nc(S)sc2n1` [Table 8; entry 7], the “effects in metabolism shift compared with known metabolism modulators” value in series [2] is recorded as “more profound effects in metabolism shift than the known metabolism modulators such as ranolazine or trimetazidine”. Besides, the concentration for half-maximal inhibition (IC50) in series [1] worked out at 25 nM.

For orientation: IC50 means the midpoint of a concentration-inhibition curve. As usually defined, the melting point is the temperature, or range, at which the solid turns liquid.
